Source: ChEMBL document CHEMBL1201862, “PubChem BioAssay data set” (2004)
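Following 48 hours of exposure in 96-well plates, responses at five concentrations were used to interpolate endpoints linearly. GI50 marks 50% less growth.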 Active and inactive are the calls of the source. No stated cut-off is given here; in the data, active = GI50 up to about 1.1 µM and inactive = higher.

Assays:
Assay in all cases: growth of human tumour cells (NCI), 48 h
[1] = system: SNB-19
[2] = system: HCC 2998
[3] = system: MOLT-4
[4] = system: A549
[5] = system: ACHN
[6] = system: OVCAR-5
[7] = system: SK-OV-3
[8] = system: SK-MEL-28
[9] = system: SNB-78
[10] = system: LOX IMVI
[11] = system: SR
[12] = system: EKVX
[13] = system: M14
[14] = system: HOP-92
[15] = system: RPMI-8226
[16] = system: COLO 205
[17] = system: HCT-116
[18] = system: NCI-H522

SMILES: N#CC1C[C@@H]2CC3(CCC2CN1C(=O)c1ccccc1)OCCO3 (stereo partly drawn)
- GI50 [1]: > 100 µM (inactive)
- GI50 [2]: > 100 µM (inactive)
- GI50 [3]: > 100 µM (inactive)
- GI50 [4]: > 100 µM (inactive)
- GI50 [5]: > 100 µM (inactive)
- GI50 [6]: > 100 µM (inactive)
- GI50 [7]: > 100 µM (inactive)
- GI50 [8]: > 100 µM (inactive)
- GI50 [9]: > 100 µM (inactive)
- GI50 [10]: > 100 µM (inactive)
- GI50 [11]: 0.607 µM (active)
- GI50 [12]: > 100 µM (inactive)
- GI50 [13]: > 100 µM (inactive)
- GI50 [14]: > 100 µM (inactive)
- GI50 [15]: > 100 µM (inactive)
- GI50 [16]: > 100 µM (inactive)
- GI50 [17]: > 100 µM (inactive)

SMILES: COc1ccc(C(=O)C(c2ccc(OC)cc2)C2(O)C(=O)Nc3ccc([N+](=O)[O-])cc32)cc1 (stereo not drawn)
- GI50 [1]: > 100 µM (inactive)
- GI50 [3]: > 100 µM (inactive)
- GI50 [4]: > 100 µM (inactive)
- GI50 [5]: > 100 µM (inactive)
- GI50 [6]: > 100 µM (inactive)
- GI50 [18]: > 100 µM (inactive)
- GI50 [7]: > 100 µM (inactive)
- GI50 [8]: > 100 µM (inactive)
- GI50 [9]: > 100 µM (inactive)
- GI50 [11]: 68.5 µM (inactive)
- GI50 [12]: > 100 µM (inactive)
- GI50 [13]: > 100 µM (inactive)
- GI50 [14]: 32.9 µM (inactive)
- GI50 [15]: > 100 µM (inactive)
- GI50 [16]: > 100 µM (inactive)
- GI50 [17]: > 100 µM (inactive)

SMILES: Clc1ccc(C2=NOC(C3CCCCC3)C2)cc1 (stereo not drawn)
- GI50 [2]: > 100 µM (inactive)
- GI50 [3]: > 100 µM (inactive)
- GI50 [4]: > 100 µM (inactive)
- GI50 [5]: > 100 µM (inactive)
- GI50 [6]: > 100 µM (inactive)
- GI50 [18]: > 100 µM (inactive)
- GI50 [7]: > 100 µM (inactive)
- GI50 [8]: > 100 µM (inactive)
- GI50 [9]: > 100 µM (inactive)
- GI50 [11]: > 100 µM (inactive)
- GI50 [13]: > 100 µM (inactive)
- GI50 [14]: > 100 µM (inactive)
- GI50 [15]: > 100 µM (inactive)
- GI50 [16]: > 100 µM (inactive)
- GI50 [17]: > 100 µM (inactive)

SMILES: COc1cc2cc3c4c(cc(OC)c(OC)c4c2cc1OC)CCN3C(=O)OCCN1CCNCC1
- GI50 [1]: 21.9 µM (inactive)
- GI50 [2]: 16.1 µM (inactive)
- GI50 [3]: 16.1 µM (inactive)
- GI50 [4]: 18.5 µM (inactive)
- GI50 [5]: 15.1 µM (inactive)
- GI50 [6]: 18 µM (inactive)
- GI50 [18]: 16.6 µM (inactive)
- GI50 [7]: 17.9 µM (inactive)
- GI50 [8]: 18.5 µM (inactive)
- GI50 [9]: 16 µM (inactive)
- GI50 [10]: 13.7 µM (inactive)
- GI50 [11]: 11.2 µM (inactive)
- GI50 [12]: 15.1 µM (inactive)
- GI50 [13]: 14.7 µM (inactive)
- GI50 [14]: 12.9 µM (inactive)
- GI50 [15]: 14.1 µM (inactive)
- GI50 [16]: 8.22 µM (inactive)
- GI50 [17]: 11.9 µM (inactive)

SMILES: COc1ccc2c(c1)CCc1cnn(C3OC(COC(C)=O)C(OC(C)=O)C(OC(C)=O)C3OC(C)=O)c1-2 (stereo not drawn)
- GI50 [1]: > 100 µM (inactive)
- GI50 [2]: > 100 µM (inactive)
- GI50 [3]: 29.2 µM (inactive)
- GI50 [4]: > 100 µM (inactive)
- GI50 [5]: > 100 µM (inactive)
- GI50 [6]: > 100 µM (inactive)
- GI50 [18]: 17 µM (inactive)
- GI50 [8]: 41.1 µM (inactive)
- GI50 [9]: > 100 µM (inactive)
- GI50 [10]: > 100 µM (inactive)
- GI50 [11]: 26.1 µM (inactive)
- GI50 [12]: 49 µM (inactive)
- GI50 [13]: 56 µM (inactive)
- GI50 [14]: 27.3 µM (inactive)
- GI50 [15]: 16.7 µM (inactive)
- GI50 [16]: 84.7 µM (inactive)
- GI50 [17]: > 100 µM (inactive)

SMILES: O=C1CC(S(=O)(=O)O)C=C1Nc1cccc(Cl)c1 (stereo not drawn)
- GI50 [1]: > 100 µM (inactive)
- GI50 [2]: > 100 µM (inactive)
- GI50 [3]: > 100 µM (inactive)
- GI50 [4]: > 100 µM (inactive)
- GI50 [5]: > 100 µM (inactive)
- GI50 [6]: > 100 µM (inactive)
- GI50 [18]: > 100 µM (inactive)
- GI50 [7]: > 100 µM (inactive)
- GI50 [8]: > 100 µM (inactive)
- GI50 [9]: > 100 µM (inactive)
- GI50 [10]: > 100 µM (inactive)
- GI50 [11]: > 100 µM (inactive)
- GI50 [12]: > 100 µM (inactive)
- GI50 [13]: > 100 µM (inactive)
- GI50 [14]: > 100 µM (inactive)
- GI50 [16]: > 100 µM (inactive)
- GI50 [17]: > 100 µM (inactive)

SMILES: CCOC(=O)/C=C/c1ccccn1
- GI50 [2]: > 100 µM (inactive)
- GI50 [3]: > 100 µM (inactive)
- GI50 [4]: > 100 µM (inactive)
- GI50 [5]: > 100 µM (inactive)
- GI50 [6]: > 100 µM (inactive)
- GI50 [18]: > 100 µM (inactive)
- GI50 [7]: > 100 µM (inactive)
- GI50 [8]: > 100 µM (inactive)
- GI50 [9]: > 100 µM (inactive)
- GI50 [10]: > 100 µM (inactive)
- GI50 [11]: > 100 µM (inactive)
- GI50 [12]: > 100 µM (inactive)
- GI50 [13]: > 100 µM (inactive)
- GI50 [14]: > 100 µM (inactive)
- GI50 [15]: > 100 µM (inactive)
- GI50 [16]: > 100 µM (inactive)
- GI50 [17]: > 100 µM (inactive)

SMILES: CCOC(=O)C(C[Si](C)(C)C)P(=O)(OCC)OCC (stereo not drawn)
- GI50 [2]: > 100 µM (inactive)
- GI50 [3]: > 100 µM (inactive)
- GI50 [4]: > 100 µM (inactive)
- GI50 [5]: > 100 µM (inactive)
- GI50 [6]: > 100 µM (inactive)
- GI50 [18]: > 100 µM (inactive)
- GI50 [7]: > 100 µM (inactive)
- GI50 [8]: > 100 µM (inactive)
- GI50 [9]: > 100 µM (inactive)
- GI50 [10]: > 100 µM (inactive)
- GI50 [11]: > 100 µM (inactive)
- GI50 [13]: > 100 µM (inactive)
- GI50 [14]: > 100 µM (inactive)
- GI50 [15]: > 100 µM (inactive)
- GI50 [16]: > 100 µM (inactive)
- GI50 [17]: > 100 µM (inactive)
